Results as given in patent US12606561B2, “Substituted pyrazolo[1,5-a][1,3,5]triazines as CDK inhibitors” (QURIENT CO., LTD., priority 2018, dated 2026).

Key:
CDK1/Cyclin B = biological target: T1, CDK1/Cyclin B (Homo sapiens, UniProt P06493); experiment: Enzymatic assay for CDK1 (LANCE Ultra kinase assay, FRET based); format: biochemical; conditions: ATP at Km; read-out: CDK1 enzymatic activity IC50
T1 construct: purchased Invitrogen PR4768C
Method in brief: (§1)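 Inhibition of purified CDK/cyclin complexes was measured with ATP at its Km, using a ULight-labeled peptide substrate. Substrate phosphorylation was detected by FRET with a Europium-labeled anti-phospho-antibody.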

CDK2/Cyclin A = biological target: T2, CDK2/Cyclin A (Homo sapiens, UniProt P24941); experiment: Enzymatic assay for CDK2 (LANCE Ultra kinase assay, FRET based); format: biochemical; conditions: ATP at Km
T2 construct: purchased Invitrogen PV6290
Method in brief: (§2)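 Compounds tested as 8 doses in 4-fold steps against CDK2/Cyclin A ([…]) or CDK5/p25 ([…]), with ATP at its Km and 68 nM ULight-MBP substrate. After 60 min at 23° C., EDTA plus Eu-labelled anti-phospho-MBP added; TR-FRET (615/665 nm) read after another 60 min.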

CDK5/p25 = biological target: T3, CDK5/p25 (Homo sapiens, UniProt Q00535); experiment: Enzymatic assay for CDK5 (LANCE Ultra kinase assay, FRET based); format: biochemical; conditions: ATP at Km
T3 construct: purchased Invitrogen PR8543B
T3 sequence (Q00535 whole entry): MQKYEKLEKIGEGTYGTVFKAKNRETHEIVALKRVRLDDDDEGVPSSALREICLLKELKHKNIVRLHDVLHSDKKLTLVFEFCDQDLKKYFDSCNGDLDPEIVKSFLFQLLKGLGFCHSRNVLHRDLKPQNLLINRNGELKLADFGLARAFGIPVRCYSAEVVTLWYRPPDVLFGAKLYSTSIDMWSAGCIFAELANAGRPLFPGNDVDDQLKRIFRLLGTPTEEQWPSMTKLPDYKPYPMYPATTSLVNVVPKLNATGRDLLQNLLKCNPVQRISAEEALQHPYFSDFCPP
T3 sequence (Q15078 99-307 partner limits assumed): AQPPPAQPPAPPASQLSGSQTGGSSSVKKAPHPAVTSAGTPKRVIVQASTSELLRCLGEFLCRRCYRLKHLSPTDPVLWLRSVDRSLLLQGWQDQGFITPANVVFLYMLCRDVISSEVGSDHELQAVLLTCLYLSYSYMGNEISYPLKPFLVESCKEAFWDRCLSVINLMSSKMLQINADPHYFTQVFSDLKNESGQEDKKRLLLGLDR
Method in brief: as §2

CDK7/Cyclin H/MNAT1 = biological target: T4, CDK7/Cyclin H/MNAT1 (Homo sapiens, UniProt P50613); experiment: Enzymatic assay for CDK7 (LANCE Ultra kinase assay, FRET based); format: biochemical; conditions: for IC50: ATP at Km
T4 construct: purchased Invitrogen PR6749B
T4 sequence (P50613 whole entry): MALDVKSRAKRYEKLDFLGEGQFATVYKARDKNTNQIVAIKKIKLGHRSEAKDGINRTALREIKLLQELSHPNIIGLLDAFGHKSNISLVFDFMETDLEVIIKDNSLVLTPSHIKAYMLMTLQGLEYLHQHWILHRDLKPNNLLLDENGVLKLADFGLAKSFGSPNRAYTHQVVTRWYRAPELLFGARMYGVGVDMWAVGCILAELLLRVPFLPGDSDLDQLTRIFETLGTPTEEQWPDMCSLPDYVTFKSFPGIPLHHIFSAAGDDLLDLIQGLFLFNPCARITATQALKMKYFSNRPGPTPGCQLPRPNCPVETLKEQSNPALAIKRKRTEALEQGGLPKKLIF
T4 sequence (P51946 whole entry partner): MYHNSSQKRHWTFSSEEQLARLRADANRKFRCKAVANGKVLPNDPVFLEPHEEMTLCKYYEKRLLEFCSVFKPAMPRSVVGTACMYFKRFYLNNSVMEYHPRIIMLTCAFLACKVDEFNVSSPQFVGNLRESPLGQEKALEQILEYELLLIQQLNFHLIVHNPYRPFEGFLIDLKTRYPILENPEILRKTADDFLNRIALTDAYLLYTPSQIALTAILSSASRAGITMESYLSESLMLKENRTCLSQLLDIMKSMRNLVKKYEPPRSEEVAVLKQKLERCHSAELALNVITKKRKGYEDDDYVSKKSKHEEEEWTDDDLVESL
T4 sequence (P51948 whole entry partner): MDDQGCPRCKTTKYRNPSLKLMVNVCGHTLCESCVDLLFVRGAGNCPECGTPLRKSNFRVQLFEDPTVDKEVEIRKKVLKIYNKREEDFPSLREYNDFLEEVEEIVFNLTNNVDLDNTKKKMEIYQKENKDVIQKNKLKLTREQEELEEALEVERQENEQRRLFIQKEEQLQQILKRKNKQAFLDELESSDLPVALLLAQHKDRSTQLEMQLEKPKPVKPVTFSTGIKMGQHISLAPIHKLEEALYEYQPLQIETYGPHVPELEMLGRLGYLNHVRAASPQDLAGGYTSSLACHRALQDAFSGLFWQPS
Method in brief: as §1

A2780 = A2780 viability assay (CellTiter-Glo, 72 hours); format: cell-based; conditions: Homo sapiens; A2780 cells
Method: (§3) Human […] cell line, MV4-11_(ATCC, Cat #CRL-9591), NSCLC (Non-small cell lung cancer) cell line H460 (ATCC, Cat #HTB-177), A2780 (ECACC, Cat #93112519) and OVCAR-3(ATCC, Cat #HTB-161) were obtained from ATCC. Cells were grown in RPMI-1640 media (Invitrogen, Cat #22400-089) supplemented with 10% FBS (Invitrogen, Cat #10099141) and 1% penicillin/streptomycin (Invitrogen, Cat #15070063) and cultured at 37° C., 5% CO2 in a humidified chamber. All cell lines were routinely tested for mycoplasma.
(§4) To effect of the CDK7 inhibitor to inhibit the growth of target cancer cells, viability assay were conducted a 72 hour time period. Briefly, the candidate cell line was plated in 96 well plate at the following density of cells respectively. 1×10^4 cells/well for MV4-11, 5×10^3 for H460 and OVCAR-3, and 1×10^3 for A2780. After 24 hours, the cells were treated with various concentrations of the compound (ranging from 0.0015 uM to 10 uM). DMSO solvent without compound served as a control and final DMSO concentration lest than 0.1%. After 72 hours of incubation at 37° C., 5% CO2 incubator, cells were analyzed for the viability using the CellTiter-Glo Luminescent Cell Viability Assay (Promega, Cat #G7570). All viability assays were performed in duplicate and Luminescence was read using an Envision (Perkin Elmer, USA). Data was analyzed using XLfit software.

OVCAR-3 = OVCAR-3 viability assay (CellTiter-Glo, 72 hours); format: cell-based; conditions: Homo sapiens; OVCAR-3 cells
Method: as §3, §4

T1 sequence (P06493 whole entry): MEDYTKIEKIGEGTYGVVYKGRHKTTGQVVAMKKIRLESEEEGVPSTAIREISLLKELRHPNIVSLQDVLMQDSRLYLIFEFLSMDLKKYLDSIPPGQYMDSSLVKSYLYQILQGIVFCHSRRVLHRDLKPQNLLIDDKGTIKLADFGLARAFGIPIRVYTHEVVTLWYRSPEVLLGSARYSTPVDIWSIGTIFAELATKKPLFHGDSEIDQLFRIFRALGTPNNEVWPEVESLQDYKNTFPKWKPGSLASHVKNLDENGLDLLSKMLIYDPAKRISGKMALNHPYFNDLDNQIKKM
T1 sequence (P14635 whole entry partner): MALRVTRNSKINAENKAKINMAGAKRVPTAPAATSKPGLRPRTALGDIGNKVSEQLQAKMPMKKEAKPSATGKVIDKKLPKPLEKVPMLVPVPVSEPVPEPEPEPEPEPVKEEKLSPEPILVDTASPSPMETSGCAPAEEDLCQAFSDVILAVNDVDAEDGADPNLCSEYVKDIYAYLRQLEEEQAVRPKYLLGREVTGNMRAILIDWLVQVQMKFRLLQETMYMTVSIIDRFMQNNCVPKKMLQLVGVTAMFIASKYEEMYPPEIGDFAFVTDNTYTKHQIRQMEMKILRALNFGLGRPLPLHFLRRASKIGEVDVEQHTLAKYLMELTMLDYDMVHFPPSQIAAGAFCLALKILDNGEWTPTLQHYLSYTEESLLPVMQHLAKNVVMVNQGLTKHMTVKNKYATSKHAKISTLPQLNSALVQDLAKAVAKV

| Structure (SMILES) | IC50 (CDK1/Cyclin B) [nM] | IC50 (CDK2/Cyclin A) [nM] | IC50 (CDK5/p25) [nM] | IC50 (CDK7/Cyclin H/MNAT1) [nM] | CDK1/CDK7: Selectivity of CDK7 inhibition over CDK1 inhibition (CDK7/Cyclin H/MNAT1) | CDK2/CDK7: Selectivity of CDK7 inhibition over CDK2 inhibition (CDK7/Cyclin H/MNAT1) | CDK5/CDK7: Selectivity of CDK7 inhibition over CDK5 inhibition (CDK7/Cyclin H/MNAT1) | IC50 (A2780) [nM] | IC50 (OVCAR-3) [nM] |
| --- | --- | --- | --- | --- | --- | --- | --- | --- | --- |
| CC(C)c1cnn2c(NCc3ccccc3-c3nccc4cc(NC(=O)/C=C/CN(C)C)ccc34)nc(NC[C@H]3CNC[C@@H]3O)nc12 [Compound 109] | > 1000 | > 1000 | > 1000 | < 100 | A (A indicates [fold] > 500) | A (A indicates [fold] > 500) | A (A indicates [fold] > 500) | 1000 to 10000 | 1000 to 10000 |
| C=CC(=O)Nc1ccc2c(-c3ccccc3CNc3cc(Nc4cccc(OC5CCC(C)(C)NC5)c4)nc4c(C(C)C)cnn34)nccc2c1 (centres unmarked) [Compound 187] | > 1000 | > 1000 | > 1000 | < 100 | A (A indicates [fold] > 500) | A (A indicates [fold] > 500) | A (A indicates [fold] > 500) | < 1000 | – |
| C=CC(=O)Nc1ccc2c(-c3ccccc3CNc3nc(-c4ccncc4)nc4c(C(C)C)cnn34)nccc2c1 [Compound 201] | > 1000 | > 1000 | > 1000 | < 100 | B (B indicates 50 < [fold] ≤ 500) | B (B indicates 50 < [fold] ≤ 500) | B (B indicates 50 < [fold] ≤ 500) | < 1000 | – |
| C=CC(=O)Nc1ccc2c(-c3ccccc3CNc3cc(C)nc4c(C(C)C)cnn34)nccc2c1 [Compound 195] | > 1000 | > 1000 | > 1000 | < 100 | A (A indicates [fold] > 500) | A (A indicates [fold] > 500) | A (A indicates [fold] > 500) | < 1000 | – |
| C=C(C)C(=O)Nc1ccc2c(-c3ccccc3CNc3cc(C(F)(F)F)nc4c(C(C)C)cnn34)nccc2c1 [Compound 208] | > 1000 | > 1000 | > 1000 | 100 to 1000 | B (B indicates 50 < [fold] ≤ 500) | B (B indicates 50 < [fold] ≤ 500) | B (B indicates 50 < [fold] ≤ 500) | 1000 to 10000 | – |
| C=CC(=O)N1CCc2c(ccnc2-c2ccccc2CNc2nc(OC3CCC(C)(C)NC3)nc3c(C(C)C)cnn23)C1 (centres unmarked) [Compound 203] | > 1000 | > 1000 | > 1000 | < 100 | A (A indicates [fold] > 500) | A (A indicates [fold] > 500) | A (A indicates [fold] > 500) | < 1000 | – |
| C=CC(=O)Nc1ccc2c(-c3ccccc3CNc3cc(C(F)(F)F)nc4c(C(C)C)cnn34)nccc2c1 [Compound 198] | > 1000 | > 1000 | > 1000 | < 100 | B (B indicates 50 < [fold] ≤ 500) | B (B indicates 50 < [fold] ≤ 500) | B (B indicates 50 < [fold] ≤ 500) | < 1000 | – |
| C=CC(=O)Nc1ccc2c(-c3ccccc3CNc3cc(NC4CCC(F)(F)CC4)nc4c(C(C)C)cnn34)nccc2c1 [Compound 186] | > 1000 | > 1000 | > 1000 | < 100 | A (A indicates [fold] > 500) | A (A indicates [fold] > 500) | A (A indicates [fold] > 500) | < 1000 | – |
| C=CC(=O)Nc1ccc2c(-c3ccccc3CNc3nc(NC4CCC(C)(C)NC4)nc4c(C(F)(F)F)cnn34)nccc2c1 (centres unmarked) [Compound 215] | > 1000 | > 1000 | > 1000 | < 100 | A (A indicates [fold] > 500) | A (A indicates [fold] > 500) | A (A indicates [fold] > 500) | < 1000 | – |
| C=CC(=O)Nc1ccc2c(-c3ccccc3CNc3cc(Cl)nc4c(C(C)C)cnn34)nccc2c1 [Compound 193] | > 1000 | > 1000 | > 1000 | < 100 | A (A indicates [fold] > 500) | A (A indicates [fold] > 500) | A (A indicates [fold] > 500) | < 1000 | – |
| C=CC(=O)Nc1ccc2c(-c3ccccc3CNc3nc(Nc4ccncc4)nc4c(C(C)C)cnn34)nccc2c1 [Compound 189] | > 1000 | > 1000 | > 1000 | 100 to 1000 | B (B indicates 50 < [fold] ≤ 500) | B (B indicates 50 < [fold] ≤ 500) | B (B indicates 50 < [fold] ≤ 500) | 1000 to 10000 | – |
| CC(C)c1cnn2c(NCc3ccccc3-c3nccc4cc(NC(=O)/C=C/CN(C)C)ccc34)nc(S(C)(=O)=O)nc12 [Compound 202] | > 1000 | > 1000 | > 1000 | < 100 | B (B indicates 50 < [fold] ≤ 500) | B (B indicates 50 < [fold] ≤ 500) | B (B indicates 50 < [fold] ≤ 500) | < 1000 | – |
| CC(C)c1cnn2c(NCc3ccccc3-c3nccc4cc(NC(=O)/C=C/CN(C)C)ccc34)cc(NC3CCC(F)(F)CC3)nc12 [Compound 185] | > 1000 | > 1000 | > 1000 | < 100 | A (A indicates [fold] > 500) | A (A indicates [fold] > 500) | A (A indicates [fold] > 500) | < 1000 | – |
| CC(C)c1cnn2c(NCc3ccccc3-c3nccc4cc(NC(=O)/C=C/CN(C)C)ccc34)cc(N3CCNC(C(F)(F)F)C3)nc12 (centres unmarked) [Compound 214] | > 1000 | > 1000 | > 1000 | < 100 | A (A indicates [fold] > 500) | A (A indicates [fold] > 500) | A (A indicates [fold] > 500) | < 1000 | – |
